Broadly, the IC50 is the concentration that inhibits the measured activity by half. As a reminder, the inhibition is the change of the read-out against control, counted positive when it falls.

The record followed here is patent US5225566A, “Indazolanonyl derivative of benzopyran” (American Home Products Corporation, priority 1992, dated 1993).

The subject of series [1] is spontaneously hypertensive rats (SHR). Put plainly: Blood pressure lowering and heart rate in conscious spontaneously hypertensive rats, oral. In kind it is in vivo, rat (male Okamoto-Aoki SHR). The source says: The blood pressure lowering activity of the compounds of this invention was established in accordance with standard pharmaceutically accepted test procedures in representative compounds as follows:
Male Okamoto-Aoki spontaneously hypertensive rats (SHR) ranging in weight from 250-400 g were anesthetized with halothane. Their left femoral arteries and veins were cannulated with polyethylene tubing of the appropriate size (i.d. 0.023", o.d. 0.038"). Each animal was placed in a Bollman cage, and the tail, along with two cannulas, was extended through a hole in one end of the cage. The tail was taped securely to a firm rubber board to prevent the rat from turning in its cage to dislodge the cannulas. The femoral arterial cannula was connected to a Statham pressure transducer which in turn was attached to a polygraph for recording arterial pressure and pulse rate. The pulse rate was considered to be the heart rate.
After the blood pressure has stabilized (usually 2 hours after cessation of the anesthesia), standard agonists were injected by the i.v. route. The doses administered were: isoproterenol 0.5 μg/kg, adrenaline 2.0 μg/kg, tyramine 200 μg/kg and angiotensin-I 0.25 μg/kg. The agonists were given in random order except that tyramine was never preceded by isoproterenol as the response to tyramine seemed to be blunted after a prior injection of isoproterenol. Enough time was allowed for the BP to return to preinjection levels before the test compound was administered by gastric lavage. The time of drug administration was designated as time zero. Heart rate and blood pressure were recorded at 5,10,15,30,45 and 60 minutes and hourly thereafter for a period of 4 hours after drug administration. At 1 and 2 hours post-drug the agonists were again injected at the same concentration and in the same order as during the control period.
For each dose, the maximum fall in blood pressure was given in mm Hg and also expressed as a percentage decrease compared to pretreatment control values. Linear regression on the maximum decrease in mean arterial blood pressure at each dose was used to calculate the ED30 (the dose which would lower mean arterial pressure by 30%). A decrease in mean arterial blood pressure of 30% reduces the blood pressure from the hypertensive to the normotensive range.

Series [2] relates to isolated rat bladder strips. Put plainly: Inhibition of contractions in isolated rat bladder strips. Set-up: species or system rat (Sprague-Dawley). Conditions: for IC50: 0.5 h, additional 15 mM KCl, 30 min challenge. The source says:
In addition, smooth muscle relaxing activity of the compounds of this invention was established in accordance with standard pharmaceutically accepted test procedures in representative compounds as follows:
Sprague-Dawley rats (150-200 g) are rendered unconscious by CO2 asphyxiation and then euthanized by cervical dislocation. The bladder is removed into warm (37 deg.C.) physiological salt solution (PSS) of the following composition (mM): NaCl, 118.4; KCl, 4.7; CaCl2, 2.5; […]; NaHCO3, 24.9; KH2 PO4, 1.2; glucose, 11.1; EDTA, 0.023; gassed with […]; pH 7.4. The bladder is opened and then cut into strips 1-2 mm in width and 7-10 mm in length. The strips are subsequently suspended in a 10 ml tissue bath under an initial resting tension of 1.5 g. The strips are held in place by two surgical clips one of which is attached to fixed hook while the other is attached to an isometric force transducer. […] The carbachol is then washed out and the tissue allowed to relax to its resting level of activity. Following 1 further 30 min period of recovery an additional 15 mM KCl are introduced into the tissue bath. This increase in KCl concentration results in a large increase in the amplitude of spontaneous contractions (and initiation of contractions in previously quiescent strips) superimposed upon a small increase in basal tone. Following stabilization of this enhanced level of contractile activity, incremental increases in the concentration of test compound or vehicle are introduced into the tissue bath. Contractile activity is measured for each compound or vehicle concentration during the last min of a 30 min challenge.
Isometric force developed by the bladder strips is measured using a […] to elicit 50% inhibition of pre-drug contractile activity (IC50 concentration) is calculated from this concentration-response curve. The maximum percentage inhibition of contractile activity evoked by a test compound is also recorded for concentrations of test compound<or equal to 30 uM.

SMILES strings stand for the structures.

With `CC1(C)Oc2ccc(OC(F)(F)F)cc2[C@H](n2[nH]c3ccccc3c2=O)[C@H]1O` [Example 7, (+)-2-[(3R,4S)-3-Hydroxy-2,2-dimethyl-6-trifluoromethoxychroman-4-yl]-1,2-dihydro-indazol-3-one], in series [1] (0.1 mg/kg p.o., 5 m), the “Max Δ BP (mean arterial blood pressure)” value was -12 mm Hg; the “Max Δ BP, %” value is on record as -7 ± 1%; the “Max Δ HR (heart rate)” value was “+39 beats/min”; the “Max Δ HR, %” value is “+10 ± 3%”. In series [1] (1.0 mg/kg p.o., 30 m), the “Max Δ BP (mean arterial blood pressure)” value is recorded as -96 mm Hg; the “Max Δ BP, %” value is -51 ± 1%; the “Max Δ HR (heart rate)” value is “+114 beats/min”; the “Max Δ HR, %” value is on record as “+31 ± 7%”. Further, in series [1] (1.0 mg/kg p.o., 4 h), the “Δ BP (mean arterial blood pressure)” value is given as -20 mm Hg; the “Δ BP, %” value is on record as -11 ± 2%; the “Δ HR (heart rate)” value is “+38 beats/min”; the “Δ HR, %” value was “+10 ± 4%”.

With `Cc1ccc2[nH]n([C@@H]3c4cc(OC(F)(F)F)ccc4OC(C)(C)[C@H]3O)c(=O)c2c1` [Example 8, (-)-2-[(3S,4R)-3-Hydroxy-2,2-dimethyl-6-trifluoromethoxy-chroman-4-yl]-5-methyl-1,2-dihydro-indazol-3-one], in series [2], 11 nM corresponded to half-maximal inhibition (IC50).

On to `CC1(C)Oc2ccc(OC(F)(F)F)cc2[C@@H](n2[nH]c3ccccc3c2=O)[C@@H]1O` [Example 1, (-)-2-[(3S,4R)-3-Hydroxy-2,2-dimethyl-6-trifluoromethoxy-chroman-4-yl]-1,2-dihydro-indazol-3-one], for which, in series [1] (0.1 mg/kg p.o., 15 m), the “Max Δ BP (mean arterial blood pressure)” value is -41 mm Hg; the “Max Δ BP, %” value is on record as -21 ± 3%; the “Max Δ HR (heart rate)” value is given as “+58 beats/min”; the “Max Δ HR, %” value was “+16 ± 6%”. In addition, in series [1] (0.1 mg/kg p.o., 2 h), the “Δ BP (mean arterial blood pressure)” value is given as -13 mm Hg; the “Δ BP, %” value was -7 ± 2%; the “Δ HR (heart rate)” value is -29 beats/min; the “Δ HR, %” value was -7 ± 3%. In series [1] (0.3 mg/kg p.o., 30 m), the “Max Δ BP (mean arterial blood pressure)” value is reported as -102 mm Hg; the “Max Δ BP, %” value is -55 ± 2%; the “Max Δ HR (heart rate)” value was “+90 beats/min”; the “Max Δ HR, %” value is “+25 ± 6%”. For the same compound, in series [1] (0.3 mg/kg p.o., 4 h), the “Δ BP (mean arterial blood pressure)” value is listed as -22 mm Hg; the “Δ BP, %” value is given as -12 ± 4%; the “Δ HR (heart rate)” value was “+36 beats/min”; the “Δ HR, %” value is reported as “+10 ± 4%”. Moreover, in series [1] (1.0 mg/kg p.o., 45 m), the “Max Δ BP (mean arterial blood pressure)” value is -112 mm Hg; the “Max Δ BP, %” value was -59 ± 4%; the “Max Δ HR (heart rate)” value is reported as “+41 beats/min”; the “Max Δ HR, %” value is recorded as “+11 ± 12%”. Further, in series [1] (1.0 mg/kg p.o., 4 h), the “Δ BP (mean arterial blood pressure)” value is recorded as -92 mm Hg; the “Δ BP, %” value is given as -47 ± 15%; the “Δ HR (heart rate)” value is given as -31 beats/min; the “Δ HR, %” value is on record as -9 ± 13%. Also, the IC50 in series [2] was found to be 44 nM. The inhibition at 0.3 µM in series [2] (at 0.3 μM, read-out: Inhibition of Force (%) at (x) μM) was 100%.

Consider `Cn1c2ccccc2c(=O)n1[C@@H]1c2cc(OC(F)(F)F)ccc2OC(C)(C)[C@H]1O` [Example 2, (-)-2-[(3S,4R)-3-Hydroxy-2,2-dimethyl-6-trifluoromethoxy-chroman-4-yl]-1-methyl-1,2-dihydro-indazol-3-one], for which, in series [1] (1.0 mg/kg p.o., 45 m), the “Max Δ BP (mean arterial blood pressure)” value was -22 mm Hg; the “Max Δ BP, %” value is -13 ± 2%; the “Max Δ HR (heart rate)” value was “+17 beats/min”; the “Max Δ HR, %” value is recorded as “+4 ± 1%”. Moreover, the concentration for half-maximal inhibition (IC50) in series [2] was 9000 nM. Further, in series [2] (at 10 μM, read-out: Inhibition of Force (%) at (x) μM), the inhibition at 10 µM worked out at 58%.
